# Reference: ChEMBL document CHEMBL3885881, “DrugMatrix”
# Organism: Rattus norvegicus
# Assay: DrugMatrix - Regimen: Daily Repeat
# Format: toxicity, organism-based, Sprague-Dawley
# Set-up: regimen Daily Repeat, gender Male, age 6-8 weeks
# Conditions: in vivo, po, […], route oral GAVAGE; for ABSOLUTE BASOPHIL / ABSOLUTE EOSINOPHIL / ABSOLUTE LYMPHOCYTE / ABSOLUTE MONOCYTE / ABSOLUTE SEGMENTED NEUTROPHIL / BASOPHIL / EOSINOPHIL / ERYTHROCYTE COUNT / HEMATOCRIT / HEMOGLOBIN / LEUKOCYTE COUNT / LYMPHOCYTE / MEAN CORPUSCULAR HEMOGLOBIN / MEAN CORPUSCULAR HEMOGLOBIN CONCENTRATION / MEAN CORPUSCULAR VOLUME / MONOCYTE / NEUTROPHIL / NUCLEATED RED BLOOD CELLS / PLATELET COUNT: tissue Blood; for ALANINE AMINOTRANSFERASE / ALBUMIN / ALKALINE PHOSPHATASE / ASPARTATE AMINOTRANSFERASE / BLOOD UREA NITROGEN / CARBON DIOXIDE / CHLORIDE / CHOLESTEROL / CREATINE PHOSPHOKINASE / CREATININE / GLUCOSE / LACTATE DEHYDROGENASE / LIPASE / PHOSPHORUS / POTASSIUM / SODIUM / TOTAL BILIRUBIN / TOTAL PROTEIN / URIC ACID: tissue Plasma
# [1] = 130 mg/kg, dose level Low, time 7 day
# [2] = 500 mg/kg, 72 h, dose level High, time 3 day
# [3] = 500 mg/kg, dose level High, time 7 day
structure (smiles),measurement,setting,value
CCOC(=O)C(C)(C)Oc1ccc(Cl)cc1 [CLOFIBRATE],ABSOLUTE BASOPHIL,[1],0 CELLS/uL
same,ABSOLUTE EOSINOPHIL,[1],21.17 CELLS/uL
same,ABSOLUTE LYMPHOCYTE,[1],6867.67 CELLS/uL
same,ABSOLUTE MONOCYTE,[1],104.17 CELLS/uL
same,ABSOLUTE SEGMENTED NEUTROPHIL,[1],707 CELLS/uL
same,BASOPHIL,[1],0%
same,EOSINOPHIL,[1],0.17%
same,ERYTHROCYTE COUNT,[1],5.45 x10E6/uL
same,HEMATOCRIT,[1],34%
same,HEMOGLOBIN,[1],13.12 G/DL
same,LEUKOCYTE COUNT,[1],7.7 x10E3/uL
same,LYMPHOCYTE,[1],90.17%
same,MEAN CORPUSCULAR HEMOGLOBIN,[1],24.08 pg
same,MEAN CORPUSCULAR HEMOGLOBIN CONCENTRATION,[1],38.57 G/DL
same,MEAN CORPUSCULAR VOLUME,[1],62.45 fL
same,MONOCYTE,[1],1.17%
same,NEUTROPHIL,[1],8.5%
same,NUCLEATED RED BLOOD CELLS,[1],0 /100WBC
same,PLATELET COUNT,[1],1220 x10E3/uL
same,ALANINE AMINOTRANSFERASE,[1],65.83 u/L
same,ALBUMIN,[1],4.38 G/DL
same,ALKALINE PHOSPHATASE,[1],251.5 u/L
same,ASPARTATE AMINOTRANSFERASE,[1],76.33 u/L
same,BLOOD UREA NITROGEN,[1],14.33 mg/dL
same,CARBON DIOXIDE,[1],30.5 mmol/L
same,CHLORIDE,[1],104.5 MEQ/L
same,CHOLESTEROL,[1],60.5 mg/dL
same,CREATINE PHOSPHOKINASE,[1],323.5 u/L
same,CREATININE,[1],0.21 mg/dL
same,GLUCOSE,[1],149.17 mg/dL
same,LACTATE DEHYDROGENASE,[1],102.17 u/L
same,LIPASE,[1],9.67 u/L
same,PHOSPHORUS,[1],10.73 mg/dL
same,POTASSIUM,[1],5.56 MEQ/L
same,SODIUM,[1],146.55 MEQ/L
same,TOTAL BILIRUBIN,[1],0.1 mg/dL
same,TOTAL PROTEIN,[1],6.07 G/DL
same,URIC ACID,[1],0.98 mg/dL
same,ABSOLUTE BASOPHIL,[2],0 CELLS/uL
same,ABSOLUTE EOSINOPHIL,[2],0 CELLS/uL
same,ABSOLUTE LYMPHOCYTE,[2],11363.33 CELLS/uL
same,ABSOLUTE MONOCYTE,[2],222.5 CELLS/uL
same,ABSOLUTE SEGMENTED NEUTROPHIL,[2],1180.83 CELLS/uL
same,BASOPHIL,[2],0%
same,EOSINOPHIL,[2],0%
same,ERYTHROCYTE COUNT,[2],5.54 x10E6/uL
same,HEMATOCRIT,[2],33.68%
same,HEMOGLOBIN,[2],13.67 G/DL
same,LEUKOCYTE COUNT,[2],12.77 x10E3/uL
same,LYMPHOCYTE,[2],89%
same,MEAN CORPUSCULAR HEMOGLOBIN,[2],24.72 pg
same,MEAN CORPUSCULAR HEMOGLOBIN CONCENTRATION,[2],40.7 G/DL
same,MEAN CORPUSCULAR VOLUME,[2],60.78 fL
same,MONOCYTE,[2],1.67%
same,NEUTROPHIL,[2],9.33%
same,NUCLEATED RED BLOOD CELLS,[2],0 /100WBC
same,PLATELET COUNT,[2],1039.67 x10E3/uL
same,ALANINE AMINOTRANSFERASE,[2],88.83 u/L
same,ALBUMIN,[2],4.27 G/DL
same,ALKALINE PHOSPHATASE,[2],424.33 u/L
same,ASPARTATE AMINOTRANSFERASE,[2],162 u/L
same,BLOOD UREA NITROGEN,[2],18 mg/dL
same,CARBON DIOXIDE,[2],26.83 mmol/L
same,CHLORIDE,[2],103.5 MEQ/L
same,CHOLESTEROL,[2],32.5 mg/dL
same,CREATINE PHOSPHOKINASE,[2],350.5 u/L
same,CREATININE,[2],0.19 mg/dL
same,GLUCOSE,[2],152.17 mg/dL
same,LACTATE DEHYDROGENASE,[2],380 u/L
same,LIPASE,[2],9.17 u/L
same,PHOSPHORUS,[2],9.13 mg/dL
same,POTASSIUM,[2],6.05 MEQ/L
same,SODIUM,[2],141.43 MEQ/L
same,TOTAL BILIRUBIN,[2],0.2 mg/dL
same,TOTAL PROTEIN,[2],5.38 G/DL
same,URIC ACID,[2],1.42 mg/dL
same,ABSOLUTE BASOPHIL,[3],0 CELLS/uL
same,ABSOLUTE EOSINOPHIL,[3],10.67 CELLS/uL
same,ABSOLUTE LYMPHOCYTE,[3],6850.83 CELLS/uL
same,ABSOLUTE MONOCYTE,[3],72 CELLS/uL
same,ABSOLUTE SEGMENTED NEUTROPHIL,[3],433.17 CELLS/uL
same,BASOPHIL,[3],0%
same,EOSINOPHIL,[3],0.17%
same,ERYTHROCYTE COUNT,[3],5.25 x10E6/uL
same,HEMATOCRIT,[3],32.12%
same,HEMOGLOBIN,[3],12.58 G/DL
same,LEUKOCYTE COUNT,[3],7.37 x10E3/uL
same,LYMPHOCYTE,[3],92.67%
same,MEAN CORPUSCULAR HEMOGLOBIN,[3],23.97 pg
same,MEAN CORPUSCULAR HEMOGLOBIN CONCENTRATION,[3],39.23 G/DL
same,MEAN CORPUSCULAR VOLUME,[3],61.12 fL
same,MONOCYTE,[3],1%
same,NEUTROPHIL,[3],6.17%
same,NUCLEATED RED BLOOD CELLS,[3],0 /100WBC
same,PLATELET COUNT,[3],961.33 x10E3/uL
same,ALANINE AMINOTRANSFERASE,[3],91 u/L
same,ALBUMIN,[3],4.27 G/DL
same,ALKALINE PHOSPHATASE,[3],368.83 u/L
same,ASPARTATE AMINOTRANSFERASE,[3],131.17 u/L
same,BLOOD UREA NITROGEN,[3],15.67 mg/dL
same,CARBON DIOXIDE,[3],32 mmol/L
same,CHLORIDE,[3],102 MEQ/L
same,CHOLESTEROL,[3],52.67 mg/dL
same,CREATINE PHOSPHOKINASE,[3],300.5 u/L
same,CREATININE,[3],0.21 mg/dL
same,GLUCOSE,[3],154.17 mg/dL
same,LACTATE DEHYDROGENASE,[3],169.67 u/L
same,LIPASE,[3],10.17 u/L
same,PHOSPHORUS,[3],10.03 mg/dL
same,POTASSIUM,[3],5.38 MEQ/L
same,SODIUM,[3],143.68 MEQ/L
same,TOTAL BILIRUBIN,[3],0.1 mg/dL
same,TOTAL PROTEIN,[3],5.75 G/DL
same,URIC ACID,[3],0.85 mg/dL
